Assay results taken from US20030077740A1, “Presenilin/Crk binding polypeptides (PCBP) and methods of use thereof” (priority 2001, published 2003).

Key:
[1] = molecular target: T1, large hydrophilic loop of PS1 (Homo sapiens, UniProt P49768); experiment: co-immunoprecipitation in 293T cells, PS1 loop; type: binding; conditions: immunoprecipitation with anti-TAG, 48 hrs after transfection, PS1-FLAG loop
T1 construct: and a large hydrophilic loop (amino acids 263-407); expressed in transfected cells; host or cells: 293T human kidney cells, pCIS2 expression vector
Procedure: (§1) To confirm the yeast two-hybrid data, the interaction between PBP and PSs was assayed in mammalian cells by immunoprecipitation. Human kidney 293-T cells, and monkey kidney COS-7 cells were cultured in Dulbecco's modified Eagle's medium supplemented with 10% fetal calf serum at 37° C. in a 10% CO2 atmosphere. A nine-amino acid TAG epitope ([…]) (SEQ ID NO:6) was incorporated in-frame at the 3′ end of the PBP cDNA (PBP-TAG), and an eight amino acid FLAG epitope ([…]) (SEQ ID NO:7) was attached in frame at the 5′ end of the large hydrophilic loop of PS1 cDNA and at the 3′ end of full length PS1 cDNA as described previously (Kimura, H., Proc. Natl. Acad. Sci. (USA), 90:2165-2169 (1993)). The resulting fragments were inserted into the pCIS2 expression vector (Genentech, San Francisco, Calif.) for transient or constitutive expression. […]
(§2) For immunoprecipitation of the large hydrophilic loop of PSs or Crk with PBP, cells were lysed in RIPA buffer (100 mM NaCl, 0.5% NP-40, 0.5% DOC, 0.1% SDS, 50 mM Tris, pH 7.5, 1 mM PMSF and 1 μg/ml aprotinin, 1 μg/l leupeptin) on ice for 30 min. […] The bound antibodies were detected by the ECL-plus chemiluminescence system (Amersham, Arlington Heights, Ill.).

PS1 = molecular target: T2, PS1 (Homo sapiens, UniProt P49768, L392V); experiment: yeast two-hybrid interaction with PS1; type: binding; conditions: yeast two-hybrid system
T2 construct: the large hydrophilic loop region of PS1 (amino acids 1-81, 429-468, 263-407, respectively) were inserted into the pGBT9 vector; expressed in transfected cells; host or cells: yeast Y190

[2] = tested on: large hydrophilic loop of PS2; experiment: co-immunoprecipitation in 293T cells, PS2 loop; type: binding; conditions: immunoprecipitation with anti-TAG, 48 hrs after transfection
Procedure: as §1, §2

[3] = tested on: Ca2+-activated Cl- current; experiment: Ca2+-activated Cl- current induced by serum in Xenopus oocytes; type: cell-based
Text: Xenopus oocytes contain a plasma membrane CF channel which is activated by increases in intracellular Ca^2+, and intracellular Ca^2+ release is activated exclusively by inositol 1,4,5-triphosphate (IP3) Miledi & Parker, J. Physiol., 415:189-210 (1989)). Lysophosphatidic acid (LPA) increases the Ca^2+-activated Cl^− current in oocytes expressing PS1 relative to control oocytes (Leissring et al. (1999)). Since PBP can associate with PS1, the effect of the interaction of PBP with PS1 on the activation of Ca^2+-activated Cl^− current induced by serum (Miledi & Parker (1989)) was examined with Xenopus oocytes. […] Injection of cRNAs into Xenopus oocytes and the electrophysiological recordings were done as described previously (Kimura & Schubert, Proc. Natl. Acad. Sci. (USA), 90:7508-7512 (1993)).

## PBP: novel 2027 amino acid protein, 233 kD, binds presenilins and Crk; expressed from cDNA in cells (KYGVVICSFRGSVPQGLVLEIGETVQILEKCEGWYRGVSTKKPNVKGLFPANYIHLK; listed as Mus musculus)
[1]
  interaction with PS1: interacts
PS1
  productive interaction with FAD mutant of PS1 (L392V): productive interactions did not occur
[2]
  interaction with large hydrophilic loop of PS2: interacts
[3]; PBP alone expressed
  Ca2+-activated Cl- current: slightly decreases
[3]; PS1-loop mutation L392V in the presence of PBP
  Cl- current: does not suppress
[3]; co-expression with PS1, P<0.05 PS1 vs PS1+PBP
  Ca2+-activated Cl- current: significantly suppresses
